In patent US12522594B2, “2-heteroaryl-3-oxo-2,3-dihydropyridazine-4-carboxamides for the treatment of cancer” (Deutsches Krebsforschungszentrum, priority 2017, dated 2026):
pIC50: −log10 of the molar value.

Columns and labels:
AHR [1] = molecular target: T1, AHR (Homo sapiens, UniProt P35869); experiment: In vitro assay 2: agonism in human cell line (transactivation assay, U87 cells, DRE firefly luciferase reporter); type: cell-based; parameters: host or cells: U87 glioblastoma cells, stably transfected with DRE firefly luciferase and renilla reporter constructs; settings: no kynurenic acid, 20 hours, read-out: Assay 2: AHR-luc Hum Agonism IC50
T1 sequence (P35869 11-848): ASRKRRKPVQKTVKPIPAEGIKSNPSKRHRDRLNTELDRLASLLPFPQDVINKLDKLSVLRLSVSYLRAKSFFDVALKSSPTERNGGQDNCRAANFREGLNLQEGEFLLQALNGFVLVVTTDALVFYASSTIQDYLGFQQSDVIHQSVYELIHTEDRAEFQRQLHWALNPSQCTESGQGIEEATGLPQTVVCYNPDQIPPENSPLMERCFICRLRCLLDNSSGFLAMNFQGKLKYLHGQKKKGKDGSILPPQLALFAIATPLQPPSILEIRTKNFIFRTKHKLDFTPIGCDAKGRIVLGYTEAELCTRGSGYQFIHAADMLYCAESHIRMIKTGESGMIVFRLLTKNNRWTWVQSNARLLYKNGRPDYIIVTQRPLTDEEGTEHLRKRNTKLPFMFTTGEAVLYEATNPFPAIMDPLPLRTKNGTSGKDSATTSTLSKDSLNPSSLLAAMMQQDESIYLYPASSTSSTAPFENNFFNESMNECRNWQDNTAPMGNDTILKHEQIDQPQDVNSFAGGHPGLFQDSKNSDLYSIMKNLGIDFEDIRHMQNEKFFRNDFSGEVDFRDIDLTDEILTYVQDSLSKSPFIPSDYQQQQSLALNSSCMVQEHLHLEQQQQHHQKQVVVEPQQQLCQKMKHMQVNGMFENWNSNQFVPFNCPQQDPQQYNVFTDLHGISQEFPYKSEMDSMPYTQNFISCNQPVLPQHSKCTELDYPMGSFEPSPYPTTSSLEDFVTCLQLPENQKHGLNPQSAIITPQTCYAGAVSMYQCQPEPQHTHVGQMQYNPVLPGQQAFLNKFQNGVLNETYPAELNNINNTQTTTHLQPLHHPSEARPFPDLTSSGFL
Protocol: (§1) Transactivation Assay in Human Cell Line (In Vitro Assays 1 and 2)
(§2) Transactivation assays were carried out in U87 glioblastoma cells (ATCC) endogenously expressing AHR. In addition the cells were stably transfected with an AHR inducible firefly luciferase reporter gene construct that carried AHR-binding sites (DRE) in its promoter and a renilla reporter gene construct with constitutively active promoter. Kynurenic acid is an endogenous AHR activating ligand and was used to prestimulate test cells prior to testing the antagonistic properties of compounds.
In Vitro Assay 2: Agonism in Human Cell Line
As positive activation control cells were incubated with 300 uM kynurenic acid. Normalization was done by positive and negative controls.

AHR [2] = molecular target: T1, AHR; experiment: In vitro assay 1: antagonism in human cell line (transactivation assay, U87 cells prestimulated with kynurenic acid, DRE firefly luciferase reporter); type: cell-based; parameters: host or cells: U87 glioblastoma cells, stably transfected with DRE firefly luciferase and renilla reporter constructs; settings: 150 uM kynurenic acid, 20 hours, read-out: Assay 1: AHR-luc Hum Antagonism IC50
Protocol: as §1, §2
In Vitro Assay 1: Antagonism in Human Cell Line
Normalization was done by positive and negative controls.

Row | Structure (SMILES) | pIC50 (AHR [1]) | pIC50 (AHR [2])
1 | Cn1cc(-n2nc(-c3ccc(C(F)F)cc3)cc(C(=O)N[C@H]3CCC[C@@H]3O)c2=O)cn1 (relative stereo) [Example 52, 6-[4-(Difluoromethyl)phenyl]-N-[(trans)-2-hydroxycyclopentyl]-2-(1-methyl-1H-pyrazol-4-yl)-3-oxo-2,3-dihydropyridazine-4-carboxamide] | < 4.70 | 7.94
2 | N#C[C@@H](CO)NC(=O)c1cc(-c2ccc(Cl)cc2)nn(-c2cccnc2)c1=O [Example 254, 6-(4-Chlorophenyl)-N-[(1S)-1-cyano-2-hydroxyethyl]-3-oxo-2-(pyridin-3-yl)-2,3-dihydropyridazine-4-carboxamide] | < 4.70 | 7.64
3 | O=C(N[C@H]1CCC[C@@H]1O)c1cc(-c2ccc(OC(F)(F)F)cc2)nn(-c2cccnc2)c1=O [Example 132, N-[(1S,2S)-2-Hydroxycyclopentyl]-3-oxo-2-(pyridin-3-yl)-6-[4-(trifluoromethoxy)phenyl]-2,3-dihydropyridazine-4-carboxamide] | < 4.70 | 8.16
4 | O=C(NC(CO)C1CC1)c1cc(-c2ccc(Cl)cc2)nn(-c2cccnc2)c1=O (single isomer, unassigned; (+)) [Example 91, (+)-6-(4-Chlorophenyl)-N-(1-cyclopropyl-2-hydroxyethyl)-3-oxo-2-(pyridin-3-yl)-2,3-dihydropyridazine-4-carboxamide] | < 4.70 | 7.32
5 | O=C(N[C@@H]1CC[C@@H]1O)c1cc(-c2ccc(Cl)cc2)nn(-c2cccnc2)c1=O (relative stereo) [Example 258, 6-(4-Chlorophenyl)-N-cis-2-hydroxycyclobutyl-3-oxo-2-(pyridin-3-yl)-2,3-dihydropyridazine-4-carboxamide] | < 4.70 | 7.56
6 | COCC(O)CNC(=O)c1cc(-c2ccc(Cl)cc2)nn(-c2cnn(C)c2)c1=O (single isomer, unassigned; (+)) [Example 26, (+)-6-(4-Chlorophenyl)-N-(2-hydroxy-3-methoxypropyl)-2-(1-methyl-1H-pyrazol-4-yl)-3-oxo-2,3-dihydropyridazine-4-carboxamide] | < 4.70 | 7.06
7 | C[C@@H](CO)NC(=O)c1cc(-c2ccc(CF)cc2)nn(-c2cnn(C)c2)c1=O [Example 287, 6-[4-(Fluoromethyl)phenyl]-N-[(2S)-1-hydroxypropan-2-yl]-2-(1-methyl-1H-pyrazol-4-yl)-3-oxo-2,3-dihydropyridazine-4-carboxamide] | < 4.70 | 6.14
8 | Cn1cc(-n2nc(-c3ccc(C(F)F)cc3)cc(C(=O)N[C@@H]3COC[C@@H]3O)c2=O)cn1 (relative stereo) [Example 60, 6-[4-(Difluoromethyl)phenyl]-N-[(cis)-4-hydroxytetrahydrofuran-3-yl]-2-(1-methyl-1H-pyrazol-4-yl)-3-oxo-2,3-dihydropyridazine-4-carboxamide] | < 4.70 | 7.66
9 | C[C@H](O)[C@H](C)NC(=O)c1cc(-c2ccc(OC(F)F)cc2)nn(-c2cccnc2)c1=O [Example 334, 6-[4-(Difluoromethoxy)phenyl]-N-[(2S,3S)-3-hydroxybutan-2-yl]-3-oxo-2-(pyridin-3-yl)-2,3-dihydropyridazine-4-carboxamide] | < 4.70 | 7.22
10 | C[C@@H](CO)NC(=O)c1cc(-c2ccc(C#N)cc2)nn(-c2cccnc2)c1=O [Example 179, 6-(4-Cyanophenyl)-N-[(2S)-1-hydroxypropan-2-yl]-3-oxo-2-(pyridin-3-yl)-2,3-dihydropyridazine-4-carboxamide] | < 4.70 | 6.13
11 | C[C@H](NC(=O)c1cc(-c2ccc(Cl)cc2)nn(-c2cnsc2)c1=O)C(C)(C)O [Example 209, 6-(4-Chlorophenyl)-N-[(2S)-3-hydroxy-3-methylbutan-2-yl]-3-oxo-2-(1,2-thiazol-4-yl)-2,3-dihydropyridazine-4-carboxamide] | < 4.70 | 8.91
12 | Cc1ccc(-c2cc(C(=O)N[C@H](C)CO)c(=O)n(-c3cnn(C)c3)n2)cc1 [Example 9, N-[(2R)-1-Hydroxypropan-2-yl]-6-(4-methylphenyl)-2-(1-methyl-1H-pyrazol-4-yl)-3-oxo-2,3-dihydropyridazine-4-carboxamide] | < 4.70 | 6.79
13 | O=C(N[C@H]1COC[C@@H]1O)c1cc(-c2ccc(Cl)cc2)nn(-c2cccnc2)c1=O (relative stereo) [Example 168, 6-(4-Chlorophenyl)-N-[(trans)-4-hydroxytetrahydrofuran-3-yl]-3-oxo-2-(pyridin-3-yl)-2,3-dihydropyridazine-4-carboxamide] | – | 6.62
14 | C[C@@H](CO)NC(=O)c1cc(-c2ccc(C(F)(F)F)nc2)nn(-c2cccnc2)c1=O [Example 166, N-[(2S)-1-Hydroxypropan-2-yl]-3-oxo-2-(pyridin-3-yl)-6-[6-(trifluoromethyl)pyridin-3-yl]-2,3-dihydropyridazine-4-carboxamide] | – | 6.74

Now from value to compound:

Row | pIC50 (AHR [1]) | pIC50 (AHR [2]) | Structure (SMILES)
15 | < 4.70 | 8.37 | O=C(NC[C@H](O)C(F)(F)F)c1cc(-c2ccc(C(F)(F)F)cc2)nn(-c2cnn(C(F)F)c2)c1=O [Example 223, 2-[1-(Difluoromethyl)-1H-pyrazol-4-yl]-3-oxo-N-[(2S)-3,3,3-trifluoro-2-hydroxypropyl]-6-[4-(trifluoromethyl)phenyl]-2,3-dihydropyridazine-4-carboxamide]
16 | < 4.70 | 8.62 | O=C(NC[C@H](O)C(F)(F)F)c1cc(-c2ccc(C(F)(F)F)cc2)nn(-c2cn[nH]c2)c1=O [Example 216, 3-Oxo-2-(1H-pyrazol-4-yl)-N-[(2S)-3,3,3-trifluoro-2-hydroxypropyl]-6-[4-(trifluoromethyl)phenyl]-2,3-dihydropyridazine-4-carboxamide]
17 | < 4.70 | 7.70 | Cn1cc(-n2nc(-c3ccc(OC(F)(F)F)cc3)cc(C(=O)NCC(C)(C)O)c2=O)cn1 [Example 59, N-(2-Hydroxy-2-methylpropyl)-2-(1-methyl-1H-pyrazol-4-yl)-3-oxo-6-[4-(trifluoromethoxy)phenyl]-2,3-dihydropyridazine-4-carboxamide]
18 | < 4.70 | – | O=C(NC[C@H](O)C(F)(F)F)c1cc(-c2ccc(C(F)(F)F)cc2)nn(-c2cccnc2)c1=O [Example 117, 3-Oxo-2-(pyridin-3-yl)-N-[(2S)-3,3,3-trifluoro-2-hydroxypropyl]-6-[4-(trifluoromethyl)phenyl]-2,3-dihydropyridazine-4-carboxamide]
19 | < 4.70 | – | O=C(N[C@H]1CCCC[C@H]1O)c1cc(-c2ccc(C(F)(F)F)cc2)nn(-c2cccnc2)c1=O [Example 106, N-[(1S,2R)-2-Hydroxycyclohexyl]-3-oxo-2-(pyridin-3-yl)-6-[4-(trifluoromethyl)phenyl]-2,3-dihydropyridazine-4-carboxamide]
20 | < 4.70 | – | CC(NC(=O)c1cc(-c2ccc(Cl)cc2)nn(-c2cccnc2)c1=O)C(O)C(F)(F)F (single isomer, unassigned) [Example 300, 6-(4-Chlorophenyl)-3-oxo-2-(pyridin-3-yl)-N-(4,4,4-trifluoro-3-hydroxybutan-2-yl)-2,3-dihydropyridazine-4-carboxamide]
21 | < 4.70 | – | O=C(NCC(O)C(F)(F)F)c1cc(-c2ccc(C(F)(F)F)cc2)nn(-c2cccnc2)c1=O (racemic) [Example 108, 3-Oxo-2-(pyridin-3-yl)-N-[(2RS)-3,3,3-trifluoro-2-hydroxypropyl]-6-[4-(trifluoromethyl)phenyl]-2,3-dihydropyridazine-4-carboxamide]
22 | – | 7.74 | O=C(N[C@@H]1COC[C@@H]1O)c1cc(-c2ccc(C(F)(F)F)cc2)nn(-c2cccnc2)c1=O (single isomer, unassigned) [Example 252, (−)-N-cis-4-Hydroxytetra-hydrofuran-3-yl-3-oxo-2-(pyridin-3-yl)-6-[4-(trifluoromethyl)phenyl]-2,3-dihydropyridazine-4-carboxamide]
